Some test systems named below: ACHN renal; CAKI-1 renal; EKVX NSCLC; HCT-15 colon; HOP-62 NSCLC; HOP-92 NSCLC; MALME-3M melanoma; NCI-H226 lung; NCI-H23 lung; NCI-H460 lung; NCI-H522 lung; OVCAR-5 ovarian; SF-268 CNS; MCF7 breast; MDA-MB-231 breast; PC-3 prostate; T-47D breast; MDA-N.
What all share (assay): NCI tumour cell line growth inhibition, 48 h

Each structure is given as a SMILES string.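 48-hour exposure; five concentrations; linearly interpolated endpoints. The concentration for full growth arrest is given as TGI.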 Where only a bound is given, the exact number is not on record here.

In the case of `Cc1cc(Cl)ccc1NC(=O)/C(=N\NC(C)(C)C)C(C#N)c1nc(-c2ccc([N+](=O)[O-])cc2)cs1` (stereo not given), the TGI in the experiment with ACHN renal, in the experiment on CAKI-1 renal, in the experiment with EKVX NSCLC, in the experiment on HCT-15 colon, in the experiment on HOP-62 NSCLC and in the experiment on HOP-92 NSCLC was greater than 100 µM each time. The TGI in the experiment on MALME-3M melanoma, in the experiment on NCI-H226 lung, in the experiment on NCI-H23 lung, in the experiment with NCI-H460 lung, in the experiment on NCI-H522 lung and with OVCAR-5 ovarian was greater than 100 µM each time. In the experiment on SF-268 CNS, this compound yielded a TGI greater than 100 µM.

For `COc1cc([C@@H]2c3cc4c(cc3[C@@H](NCc3ccccc3F)C3COC(=O)[C@@H]32)OCO4)cc(OC)c1O` (stereo not given in full), the TGI in the experiment on ACHN renal was 4.28 µM; in the experiment with CAKI-1 renal, 44.2 µM; with EKVX NSCLC, 45.9 µM; with HCT-15 colon it was 22.4 µM; in the experiment with HOP-62 NSCLC it was 7.74 µM; in the experiment on HOP-92 NSCLC it was 54.3 µM. For the same compound, the TGI is 28.3 µM in the experiment on MALME-3M melanoma; 7.52 µM with NCI-H226 lung; 7.5 µM in the experiment with NCI-H23 lung; 13.2 µM in the experiment on NCI-H460 lung; 10.2 µM with NCI-H522 lung; 78.4 µM with OVCAR-5 ovarian. The TGI with SF-268 CNS is greater than 100 µM.

As to `CSc1nc(-c2ccccc2)[nH]c(=O)n1`, the TGI in the experiment with ACHN renal, in the experiment on CAKI-1 renal, in the experiment with EKVX NSCLC, in the experiment on HCT-15 colon, with HOP-62 NSCLC and in the experiment with HOP-92 NSCLC was greater than 100 µM in each case. Also, the TGI with MALME-3M melanoma, in the experiment with MCF7 breast, with MDA-MB-231 breast, with NCI-H226 lung, in the experiment with NCI-H23 lung and in the experiment on NCI-H522 lung was greater than 100 µM in each case. Besides, the TGI in the experiment on OVCAR-5 ovarian, with PC-3 prostate, in the experiment with SF-268 CNS and in the experiment on T-47D breast was greater than 100 µM throughout.

For `Cc1ccc(S(=O)(=O)C2=Cc3ccccc3C2(O)c2ccccc2)cc1` (stereo not given), the TGI is greater than 100 µM in the experiment with ACHN renal; 76 µM with EKVX NSCLC; greater than 100 µM in the experiment on HCT-15 colon; greater than 10 µM in the experiment on HOP-62 NSCLC; 33.3 µM in the experiment with MDA-MB-231 breast; 48.2 µM in the experiment on MDA-N. For the same compound, the TGI with NCI-H226 lung was 64.5 µM; with NCI-H23 lung, greater than 100 µM; in the experiment on NCI-H460 lung it was 54.6 µM; with NCI-H522 lung it was 65 µM; in the experiment with OVCAR-5 ovarian, greater than 100 µM; with PC-3 prostate, 92.6 µM. Besides, the TGI in the experiment with SF-268 CNS and with T-47D breast was greater than 100 µM each time.

For the compound `O=C(NC(CS)C(=O)O)c1c2ccccc2nc2ccccc12` (stereo not given), the TGI in the experiment on ACHN renal, in the experiment on CAKI-1 renal, with EKVX NSCLC, in the experiment with HCT-15 colon, with HOP-62 NSCLC and in the experiment with HOP-92 NSCLC was greater than 100 µM each time. The TGI is 56.8 µM in the experiment with MALME-3M melanoma; greater than 100 µM in the experiment on MCF7 breast; greater than 100 µM with MDA-MB-231 breast; greater than 100 µM in the experiment with MDA-N; greater than 100 µM in the experiment on NCI-H226 lung; 68.6 µM with NCI-H23 lung. The TGI with NCI-H460 lung, in the experiment on NCI-H522 lung, with OVCAR-5 ovarian, in the experiment with PC-3 prostate and in the experiment with SF-268 CNS was greater than 100 µM in each case.

With `COc1cc(C2c3cc4c(cc3OC(NNC(N)=S)C2C)OCO4)cc(OC)c1OC` (stereo not given), the TGI is greater than 100 µM with ACHN renal; 36.3 µM with CAKI-1 renal; greater than 100 µM with EKVX NSCLC; greater than 100 µM with HCT-15 colon; greater than 100 µM in the experiment with HOP-62 NSCLC; 7.9 µM with HOP-92 NSCLC. For the same compound, the TGI with MALME-3M melanoma was greater than 100 µM; in the experiment with MCF7 breast, greater than 100 µM; in the experiment on MDA-MB-231 breast it was 8.68 µM; in the experiment on MDA-N, greater than 100 µM; in the experiment with NCI-H226 lung it was 21 µM; in the experiment on NCI-H460 lung it was greater than 100 µM. Moreover, the TGI was 1.24 µM with NCI-H522 lung, greater than 100 µM with OVCAR-5 ovarian, greater than 100 µM in the experiment with SF-268 CNS and greater than 31.6 µM in the experiment with T-47D breast.

Regarding `COc1cc(/C=C2\CCC(C)C3=C2N=c2s/c(=C/c4ccc(Cl)cc4)c(=O)n2C3c2cc(OC)c(OC)c(OC)c2)cc(OC)c1OC` (stereo not given), the TGI in the experiment on ACHN renal, in the experiment on CAKI-1 renal, in the experiment with EKVX NSCLC, in the experiment on HCT-15 colon, in the experiment on HOP-62 NSCLC and in the experiment with HOP-92 NSCLC was greater than 100 µM throughout. In addition, the TGI in the experiment on MCF7 breast, in the experiment with MDA-MB-231 breast, with MDA-N, in the experiment with OVCAR-5 ovarian, in the experiment on PC-3 prostate and in the experiment on SF-268 CNS was greater than 100 µM in each case.

With `COc1cccc(C2=NC(C(C)C)CO2)c1OC` (stereo not given), the TGI in the experiment on ACHN renal, with CAKI-1 renal, in the experiment with EKVX NSCLC, in the experiment on HCT-15 colon, in the experiment on HOP-62 NSCLC and with HOP-92 NSCLC was greater than 100 µM each time. Moreover, the TGI in the experiment on MALME-3M melanoma, with NCI-H226 lung, with NCI-H23 lung, with NCI-H460 lung, in the experiment on NCI-H522 lung and with OVCAR-5 ovarian was greater than 100 µM in each case. The TGI in the experiment on SF-268 CNS is greater than 100 µM.

As for `CC(=O)NC1=NC(=O)/C(=C/c2ccccc2Cl)N1C`, the TGI with ACHN renal, in the experiment on CAKI-1 renal, with EKVX NSCLC, with HCT-15 colon, with HOP-62 NSCLC and in the experiment on HOP-92 NSCLC was greater than 100 µM throughout. In addition, the TGI in the experiment on MCF7 breast, with MDA-MB-231 breast, in the experiment on MDA-N, in the experiment with NCI-H226 lung, with NCI-H23 lung and in the experiment with NCI-H460 lung was greater than 100 µM throughout. Also, the TGI in the experiment on NCI-H522 lung, in the experiment on OVCAR-5 ovarian, in the experiment on PC-3 prostate and with SF-268 CNS was greater than 100 µM in each case.

Values taken from PubChem BioAssay (NCI).
